Source: PubChem BioAssay AID248 (DTP/NCI, 2004)
Toxic doses and inconclusive results are not listed. Rule as the data show it: active = T/C of 150% or more; inactive = T/C below 125%.

Test system: L1210 leukemia ip in BDF1 mice, survival T/C
Experiment: NCI In Vivo Anticancer Drug Screen. Data for tumor model L1210 Leukemia (intraperitoneal) in B6D2F1 (BDF1) mice
Settings: endpoint: mean survival time, higher = longer survival
In short: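 Mice bearing the transplanted tumor received compound or vehicle. Survival of the treated group was divided by that of the vehicle-treated control group to give the ratio.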

[1] = dose: 75.0 mg/kg/injection, schedule: Q01DX001 (ip), vehicle: other
[2] = dose: 150.0 mg/kg/injection, schedule: Q01DX001 (ip), vehicle: other
[3] = dose: 300.0 mg/kg/injection, schedule: Q01DX001 (ip), vehicle: other
[4] = dose: 100.0 mg/kg/injection, schedule: Q01DX001 (ip), vehicle: saline
[5] = dose: 200.0 mg/kg/injection, schedule: Q01DX001 (ip), vehicle: saline
[6] = dose: 400.0 mg/kg/injection, schedule: Q01DX001 (ip), vehicle: saline
[7] = dose: 100.0 mg/kg/injection, schedule: Q04DX002 (ip), vehicle: Klucel (hydroxypropylcellulose) (HPC)
[8] = dose: 200.0 mg/kg/injection, schedule: Q04DX002 (ip), vehicle: Klucel (hydroxypropylcellulose) (HPC)
[9] = dose: 400.0 mg/kg/injection, schedule: Q04DX002 (ip), vehicle: Klucel (hydroxypropylcellulose) (HPC)
[10] = dose: 100.0 mg/kg/injection, schedule: Q04DX003 (ip), vehicle: saline with Tween-80
[11] = dose: 200.0 mg/kg/injection, schedule: Q04DX003 (ip), vehicle: saline with Tween-80
[12] = dose: 400.0 mg/kg/injection, schedule: Q04DX003 (ip), vehicle: saline with Tween-80
[13] = dose: 100.0 mg/kg/injection, schedule: Q01DX001 (ip), vehicle: saline with Tween-80
[14] = dose: 100.0 mg/kg/injection, schedule: Q01DX009 (ip), vehicle: saline with Tween-80
[15] = dose: 200.0 mg/kg/injection, schedule: Q01DX009 (ip), vehicle: saline with Tween-80
[16] = dose: 100.0 mg/kg/injection, schedule: Q04DX003 (ip), vehicle: Klucel (hydroxypropylcellulose) (HPC)
[17] = dose: 200.0 mg/kg/injection, schedule: Q04DX003 (ip), vehicle: Klucel (hydroxypropylcellulose) (HPC)
[18] = dose: 400.0 mg/kg/injection, schedule: Q04DX003 (ip), vehicle: Klucel (hydroxypropylcellulose) (HPC)
[19] = dose: 100.0 mg/kg/injection, schedule: Q01DX009 (ip), vehicle: Klucel (hydroxypropylcellulose) (HPC)
[20] = dose: 200.0 mg/kg/injection, schedule: Q01DX009 (ip), vehicle: Klucel (hydroxypropylcellulose) (HPC)
[21] = dose: 400.0 mg/kg/injection, schedule: Q01DX009 (ip), vehicle: Klucel (hydroxypropylcellulose) (HPC)
[22] = dose: 50.0 mg/kg/injection, schedule: Q01DX009 (ip), vehicle: Klucel (hydroxypropylcellulose) (HPC)
[23] = dose: 25.0 mg/kg/injection, schedule: Q01DX009 (ip), vehicle: saline with Tween-80

Measured: T/C

CC(C)C1CC=CCC12C(=O)NC(=O)NC2=O (stereo not drawn)
inactive: [1] 104 % of control | [2] 97 % of control | [3] 93 % of control

Cc1c2c(c(C)c3c4c(oc13)CCCC4)C=NCC2
inactive: dose: 100.0 mg/kg/injection, schedule: Q01DX001 (ip), vehicle: carboxymethylcellulose (CMC) 95 % of control | dose: 200.0 mg/kg/injection, schedule: Q01DX001 (ip), vehicle: carboxymethylcellulose (CMC) 92 % of control | dose: 400.0 mg/kg/injection, schedule: Q01DX001 (ip), vehicle: carboxymethylcellulose (CMC) 92 % of control

CC1C(=O)CCC2(C)CCCCC12 (stereo not drawn)
inactive: [1] 103 % of control | [2] 101 % of control | [3] 103 % of control

BrC1C2CCC(C2)C1Br (stereo not drawn)
inactive: [4] 102 % of control | [5] 100 % of control | [6] 100 % of control

O=C(Cl)C12CC3CC(CC(C3)C1)C2
inactive: [7] 111 % of control | [8] 111 % of control | [9] 100 % of control

CCCCCCCCCCCCCCCCCC[n+]1ccccc1
inactive: dose: 0.09 mg/kg/injection, schedule: Q01DX009 (ip), vehicle: saline with Tween-80 89 % of control | dose: 0.19 mg/kg/injection, schedule: Q01DX009 (ip), vehicle: saline with Tween-80 99 % of control | dose: 0.39 mg/kg/injection, schedule: Q01DX009 (ip), vehicle: saline with Tween-80 96 % of control

O=C(C1=CN(CC(O)c2ccccc2)CCC1)c1cc2ccccc2n1S(=O)(=O)c1ccccc1 (stereo not drawn)
inactive: dose: 100.0 mg/kg/injection, schedule: Q04DX002 (ip), vehicle: saline with Tween-80 97 % of control | dose: 200.0 mg/kg/injection, schedule: Q04DX002 (ip), vehicle: saline with Tween-80 94 % of control | dose: 400.0 mg/kg/injection, schedule: Q04DX002 (ip), vehicle: saline with Tween-80 94 % of control

Cc1ccc(S(=O)(=O)OCCCOS(=O)(=O)c2ccc(C)cc2)cc1
inactive: [10] 96 % of control | [11] 102 % of control | [12] 98 % of control

Nc1ccc(OCCCOc2ccccc2)cc1
inactive: [13] 102 % of control | [14] 101 % of control | dose: 200.0 mg/kg/injection, schedule: Q01DX001 (ip), vehicle: saline with Tween-80 102 % of control | [15] 112 % of control | dose: 400.0 mg/kg/injection, schedule: Q01DX001 (ip), vehicle: saline with Tween-80 97 % of control

S=c1nc[nH]c2ncccc12
inactive: [16] 104 % of control | [17] 100 % of control | [18] 97 % of control

Cc1ccc(C)c(CNc2cc(=O)[nH]c(=O)[nH]2)c1
inactive: dose: 100.0 mg/kg/injection, schedule: Q01DX001 (ip), vehicle: Klucel (hydroxypropylcellulose) (HPC) 97 % of control | dose: 200.0 mg/kg/injection, schedule: Q01DX001 (ip), vehicle: Klucel (hydroxypropylcellulose) (HPC) 101 % of control | dose: 400.0 mg/kg/injection, schedule: Q01DX001 (ip), vehicle: Klucel (hydroxypropylcellulose) (HPC) 97 % of control

CN(C)S(=O)(=O)Nc1cc(Cl)c(NS(=O)(=O)N(C)C)cc1Cl
inactive: [19] 94 % of control | [16] 91 % of control | [20] 96 % of control | [17] 93 % of control | [21] 102 % of control | [18] 98 % of control

CC1CCC(C(C)C)C2(C1)NC(=O)N(CC(=O)O)C2=O (stereo not drawn)
inactive: [10] 93 % of control | [11] 100 % of control | [12] 104 % of control

CCC(=O)/C=C/c1ccc(Cl)cc1
inactive: [19] 98 % of control | [16] 98 % of control | [20] 97 % of control | [17] 104 % of control | [21] 97 % of control | [18] 102 % of control

CN(C)C1=CC(=N/S(=O)(=O)c2ccccc2)/C(N(C)C)=CC/1=N/S(=O)(=O)c1ccccc1
inactive: [10] 88 % of control | [11] 90 % of control | [12] 87 % of control

COc1ccc2c(c1)CCC(CC(C)=O)C2=O (stereo not drawn)
inactive: dose: 100.0 mg/kg/injection, schedule: Q04DX003 (ip), vehicle: saline sonified 99 % of control | dose: 200.0 mg/kg/injection, schedule: Q04DX003 (ip), vehicle: saline sonified 90 % of control | dose: 400.0 mg/kg/injection, schedule: Q04DX003 (ip), vehicle: saline sonified 89 % of control

N=c1c2ncn(C3OC(CO)C(O)C3O)c2ncn1O (stereo not drawn)
inactive: dose: 50.0 mg/kg/injection, schedule: Q01DX001 (ip), vehicle: saline 101 % of control | dose: 75.0 mg/kg/injection, schedule: Q01DX001 (ip), vehicle: saline 111 % of control | [4] 103 % of control | dose: 150.0 mg/kg/injection, schedule: Q01DX001 (ip), vehicle: saline 105 % of control

NNc1nc2ccccc2s1
inactive: dose: 6.25 mg/kg/injection, schedule: Q01DX009 (ip), vehicle: Klucel (hydroxypropylcellulose) (HPC) 90 % of control | dose: 12.5 mg/kg/injection, schedule: Q01DX009 (ip), vehicle: Klucel (hydroxypropylcellulose) (HPC) 100 % of control | dose: 25.0 mg/kg/injection, schedule: Q01DX009 (ip), vehicle: Klucel (hydroxypropylcellulose) (HPC) 94 % of control | [22] 91 % of control

Nc1ccc([N+](=O)[O-])cc1N=C/C=C/c1ccccc1
inactive: [22] 101 % of control | [19] 96 % of control | [20] 92 % of control

O=S(=O)(F)c1cc(C[P+](c2ccccc2)(c2ccccc2)c2ccccc2)ccc1Cl
inactive: dose: 6.25 mg/kg/injection, schedule: Q01DX009 (ip), vehicle: saline with Tween-80 105 % of control | dose: 12.5 mg/kg/injection, schedule: Q01DX009 (ip), vehicle: saline with Tween-80 102 % of control | [23] 103 % of control

C(=C\c1ccccn1)/c1ccccc1
inactive: [16] 100 % of control | [17] 94 % of control | [18] 103 % of control

CNCCN1CCC(Cc2ccccc2)CC1
inactive: dose: 50.0 mg/kg/injection, schedule: Q01DX009 (ip), vehicle: saline 112 % of control | dose: 100.0 mg/kg/injection, schedule: Q01DX009 (ip), vehicle: saline 102 % of control | dose: 200.0 mg/kg/injection, schedule: Q01DX009 (ip), vehicle: saline 121 % of control

CC1C[N+](C)=C(c2ccc(O)cc2)S1 (stereo not drawn)
inactive: dose: 50.0 mg/kg/injection, schedule: Q01DX001 (ip), vehicle: saline with Tween-80 103 % of control | [13] 107 % of control

CCSC(=O)OCn1ncc2cc([N+](=O)[O-])ccc21
inactive: [4] 112 % of control | [5] 91 % of control | [6] 103 % of control

CC(=O)NCc1ccc([N+](=O)[O-])cc1
inactive: [23] 100 % of control | dose: 50.0 mg/kg/injection, schedule: Q01DX009 (ip), vehicle: saline with Tween-80 107 % of control | [14] 104 % of control | [15] 111 % of control

CS(=O)(=O)c1ccccc1
inactive: [7] 102 % of control | [8] 91 % of control | [9] 102 % of control
